Reference: US7597904B2, “Metalloproteinase inhibitory agent” (Nestec S.A., priority 2004, dated 2009)
Residues, ends and D or L forms follow the SMILES beside them.

How the values were obtained:
[1] = target: T1, MMP-2 (Homo sapiens, UniProt P08253); assay: Matrix metalloproteinase inhibitory test, DQ-gelatin substrate; format: biochemical; details: flourescein conjugated gelatin; read-out: IC50 for the inhibition of MMP-2
T1 sequence (P08253 110-660): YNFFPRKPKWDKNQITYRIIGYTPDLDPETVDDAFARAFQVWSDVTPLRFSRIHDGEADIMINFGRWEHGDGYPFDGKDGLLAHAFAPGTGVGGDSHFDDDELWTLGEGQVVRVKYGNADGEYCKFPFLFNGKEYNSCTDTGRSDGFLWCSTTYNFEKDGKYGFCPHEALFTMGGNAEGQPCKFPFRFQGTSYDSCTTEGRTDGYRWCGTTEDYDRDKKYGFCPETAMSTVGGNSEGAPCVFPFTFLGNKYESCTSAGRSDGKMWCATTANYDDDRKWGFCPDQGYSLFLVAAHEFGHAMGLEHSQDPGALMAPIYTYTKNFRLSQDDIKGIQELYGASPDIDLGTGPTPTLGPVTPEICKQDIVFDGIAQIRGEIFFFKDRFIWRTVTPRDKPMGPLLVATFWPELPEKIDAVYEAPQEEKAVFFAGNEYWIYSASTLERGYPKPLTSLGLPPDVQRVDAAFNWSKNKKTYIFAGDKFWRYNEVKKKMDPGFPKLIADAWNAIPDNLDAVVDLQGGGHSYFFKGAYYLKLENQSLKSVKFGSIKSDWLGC
Method: (§1) Matrix Metalloproteinase Inhibitory Test
(§2) The assay was performed in microtiter plates. In each single well 1 μl enzyme, the inhibitor at the desired concentration and finally 5 μl substrate were added to PBS buffer (pH 7.0-7.5), final volume: 200 μl. The reaction mixture was incubated at 37° C. for 2 hours. The increase in fluorescence was continuously recorded, exciting at 485 nm and reading the emission at 530 nm, with a gain of 40.
(§3) Inhibitors:— o-phenantroline: 9.9 mg in 25 μl DMF (dimethylformamide→add 1 μl (final concentration: 10 mM) • synthetic inhibitors at different concentrations
(§4) Substrate: DQ-gelatin: 1 mg/ml in PBS→add 5 μl to the reaction (reaction volume: 200 μl) (final concentration: […])
(§5) Enzymes: • MMP-7: stock solution: 1 U/μl • MMP-2: stock solution: 0.05 μg/μl • MMP-9: stock solution: 0.05 μg/μl Results & Discussion Generation of the Peptide Library with Lb. helveticus CNCM I-2864 . . .

[2] = target: T2, MMP-7 (Homo sapiens, UniProt P09237); assay: as above; format: biochemical; details: flourescein conjugated gelatin; read-out: IC50 for the inhibition of MMP-7
T2 sequence (P09237 95-267): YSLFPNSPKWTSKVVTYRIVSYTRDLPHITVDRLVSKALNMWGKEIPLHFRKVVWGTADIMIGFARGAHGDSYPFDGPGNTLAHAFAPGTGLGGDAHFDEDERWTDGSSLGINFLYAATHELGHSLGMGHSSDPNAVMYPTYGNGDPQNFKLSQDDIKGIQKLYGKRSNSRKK
Method: as §1, §2, §3, §4, §5

[3] = target: MMP-9 (Homo sapiens, UniProt P14780); assay: as above; format: biochemical; details: flourescein conjugated gelatin; read-out: IC50 for the inhibition of MMP-9
Chain of MMP-9 (P14780 94-707, species assumed): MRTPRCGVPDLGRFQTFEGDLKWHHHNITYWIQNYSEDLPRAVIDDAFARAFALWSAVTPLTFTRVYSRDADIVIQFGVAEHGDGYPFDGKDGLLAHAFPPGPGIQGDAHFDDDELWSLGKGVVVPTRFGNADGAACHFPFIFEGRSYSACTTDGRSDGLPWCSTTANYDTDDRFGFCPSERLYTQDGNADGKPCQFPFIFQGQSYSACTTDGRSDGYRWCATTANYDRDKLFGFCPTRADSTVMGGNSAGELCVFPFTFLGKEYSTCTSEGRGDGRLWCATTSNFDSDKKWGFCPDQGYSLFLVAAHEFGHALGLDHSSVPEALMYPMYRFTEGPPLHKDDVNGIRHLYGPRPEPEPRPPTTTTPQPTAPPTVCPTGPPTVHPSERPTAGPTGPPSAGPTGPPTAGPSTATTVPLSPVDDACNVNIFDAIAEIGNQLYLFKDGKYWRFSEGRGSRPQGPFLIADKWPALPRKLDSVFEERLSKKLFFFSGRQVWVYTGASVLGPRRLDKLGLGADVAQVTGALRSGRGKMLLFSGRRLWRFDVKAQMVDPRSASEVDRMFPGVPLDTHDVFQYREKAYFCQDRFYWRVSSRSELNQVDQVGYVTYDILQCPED
Method: as §1, §2, §3, §4, §5

[4] = target: T3, ACE (Homo sapiens, UniProt P12821); assay: Angiotensin-converting-enzyme inhibitory test, FAPGG substrate; format: biochemical; details: substrate N-[3-2(furyl)acryloyl]L-phenylalanylglycylglycine; read-out: IC50 for the inhibition of ACE
T3 construct: purchased
T3 sequence (P12821 30-1306, species assumed): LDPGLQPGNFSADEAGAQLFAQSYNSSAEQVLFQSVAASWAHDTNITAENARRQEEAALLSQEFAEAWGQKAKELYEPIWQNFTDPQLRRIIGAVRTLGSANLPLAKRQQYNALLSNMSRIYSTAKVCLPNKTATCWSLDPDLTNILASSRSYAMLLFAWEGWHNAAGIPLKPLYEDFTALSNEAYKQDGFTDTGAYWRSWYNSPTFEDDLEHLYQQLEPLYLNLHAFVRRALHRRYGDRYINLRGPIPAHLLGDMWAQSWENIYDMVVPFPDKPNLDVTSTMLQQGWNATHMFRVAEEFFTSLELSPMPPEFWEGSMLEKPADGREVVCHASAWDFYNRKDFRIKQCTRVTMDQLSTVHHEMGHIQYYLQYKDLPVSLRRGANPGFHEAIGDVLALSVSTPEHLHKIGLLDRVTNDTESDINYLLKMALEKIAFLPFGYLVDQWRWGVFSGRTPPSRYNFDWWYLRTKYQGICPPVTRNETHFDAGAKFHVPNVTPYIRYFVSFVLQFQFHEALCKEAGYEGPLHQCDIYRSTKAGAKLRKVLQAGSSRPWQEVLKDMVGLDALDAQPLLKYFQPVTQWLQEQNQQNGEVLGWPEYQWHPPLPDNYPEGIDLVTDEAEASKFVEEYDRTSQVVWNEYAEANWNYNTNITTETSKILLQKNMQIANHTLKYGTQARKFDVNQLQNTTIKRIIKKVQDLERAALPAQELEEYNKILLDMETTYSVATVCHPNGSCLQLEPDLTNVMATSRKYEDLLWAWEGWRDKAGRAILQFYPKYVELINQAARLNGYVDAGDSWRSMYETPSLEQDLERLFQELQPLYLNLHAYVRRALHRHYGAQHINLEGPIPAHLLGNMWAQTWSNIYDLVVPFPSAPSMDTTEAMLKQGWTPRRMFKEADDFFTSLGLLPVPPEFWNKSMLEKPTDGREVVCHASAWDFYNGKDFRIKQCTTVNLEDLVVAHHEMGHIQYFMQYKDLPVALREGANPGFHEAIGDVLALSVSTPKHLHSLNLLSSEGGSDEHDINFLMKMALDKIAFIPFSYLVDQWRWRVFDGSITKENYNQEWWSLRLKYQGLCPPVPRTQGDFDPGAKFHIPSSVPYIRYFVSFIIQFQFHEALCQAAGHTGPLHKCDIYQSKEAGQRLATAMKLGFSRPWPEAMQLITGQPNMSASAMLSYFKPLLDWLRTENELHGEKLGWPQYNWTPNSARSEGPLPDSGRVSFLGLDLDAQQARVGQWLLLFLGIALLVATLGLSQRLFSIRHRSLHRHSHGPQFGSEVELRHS
Method: Angiotensin-Converting-Enzyme Inhibitory Test
This procedure is a rapid spectrophotometric method utilizing the synthetic tripeptide substrate N-[3-(2-furyl)acryloil]-L-phenylalanylglycylglycine (FAPGG). Km-value: 0.3 mM.
FAPGG was hydrolysed to furylacryloylphenylalanine (FAP) and glycylgylcine.
The ACE reagent and the ACE Calibrator were reconstituted according to the manufacturer's recommendations.
The assay was performed in quartz cuvets. 0.05 ml ACE Reagent Solution, 0.05 ml casein hydrolysate and 0.05 ml ACE calibrator were mixed and incubated at 37° C. for 10 minutes.
The absorbance at 340 nm was measured as a function of time.
The ACE activity in the sample was determined by comparing the sample reaction rate to that obtained with the ACE calibrator. The results are expressed as percentage with respect to the control.

[5] = tested on: HT-29 cells; assay: Proliferation of HT-29 cells with synthetic peptides (percentage of counts); format: cell-based, human; details: for antiproliferative activity of synthetic peptides (in words): HT-29 cells
Method: Undifferentiated cells (passages 45-78) were maintained in glucose-containing DMEM supplemented with 10% FCS at 37° C. in a 5% CO2/air incubator. Culture medium was changed every two days until the cell monolayers reached 50% confluence. For stimulation assays, HT-29 cells were plated at 1.2*10^4 cells/well in 96-well flat-bottom plates. After incubation for 4 days, the amount of cells present in the wells before incubation with the samples was assessed adding neutral red solution in 4 wells and incubating the plate for 45 min. The HT-29 cells were then washed twice with serum-free media (inclusive the wells with neutral red solution). The wells colored with neutral red remained from now on free of any media.
Synthetic peptides that were tested on HT-29 cell line confirmed their antiproliferative potential.
The same experiment was performed with a shorter version of the former mentioned peptide: ENLLRFFVAPFPEVFG (SEQ ID NO:22) (αS1 33-48).

[6] = tested on: MMPs; details: background statement; cited from earlier work
[7] = tested on: MMP; assay: Matrix metalloproteinase inhibitory test, positive control; format: biochemical; details: 10 mM concentration; data not shown
Method: as §1, §2, §3

CC(C)C[C@H](NC(=O)[C@H](CC(C)C)NC(=O)[C@@H]1CCCN1C(=O)[C@H](CC(C)C)NC(=O)[C@@H]1CCCN1C(=O)[C@H](CC(C)C)NC(=O)[C@H](Cc1c[nH]cn1)NC(=O)[C@H](CC(C)C)NC(=O)[C@H](CC(N)=O)NC(=O)[C@@H](N)CCC(=O)O)C(=O)O [ENLHLPLPLL] (H-ENLHLPLPLL-OH; N-terminus and C-terminus assumed)
IC50 [1]: 200 µM | IC50 [2]: 275 µM | IC50 [3]: 300 µM | IC50 [4]: 250 µM

CC(C)C[C@H](NC(=O)[C@H](CC(C)C)NC(=O)[C@H](CC(N)=O)NC(=O)[C@@H](N)CCC(=O)O)C(=O)N[C@@H](CCCNC(=N)N)C(=O)N[C@@H](Cc1ccccc1)C(=O)N[C@@H](Cc1ccccc1)C(=O)N[C@H](C(=O)N[C@@H](C)C(=O)N1CCC[C@H]1C(=O)N[C@@H](Cc1ccccc1)C(=O)N1CCC[C@H]1C(=O)N[C@@H](CCC(=O)O)C(=O)N[C@H](C(=O)N[C@@H](Cc1ccccc1)C(=O)NCC(=O)O)C(C)C)C(C)C [ENLLRFFVAPFPEVFG] (H-ENLLRFFVAPFPEVFG-OH; N-terminus and C-terminus assumed)
antiproliferative activity of synthetic peptides (in words) [5]: antiproliferative pattern similar to the one observed for LNENLLRFFVAPFPEVFG | IC50 [1]: 425 µM | IC50 [2]: 1000 µM | IC50 [3]: 150 µM | IC50 [4]: 250 µM

CC(C)[C@H](NC(=O)[C@H](CCC(=O)O)NC(=O)[C@@H]1CCCN1C(=O)[C@H](Cc1ccccc1)NC(=O)[C@@H]1CCCN1C(=O)[C@H](C)NC(=O)[C@@H](NC(=O)[C@@H](N)Cc1ccccc1)C(C)C)C(=O)N[C@@H](Cc1ccccc1)C(=O)NCC(=O)O [FVAPFPEVFG] (H-FVAPFPEVFG-OH; N-terminus and C-terminus assumed)
IC50 [1]: 500 µM | IC50 [2]: 300 µM | IC50 [3]: 400 µM | IC50 [4]: 650 µM

CC(C)C[C@H](NC(=O)[C@H](CC(C)C)NC(=O)[C@H](CC(N)=O)NC(=O)[C@H](CCC(=O)O)NC(=O)[C@H](CC(N)=O)NC(=O)[C@@H](N)CC(C)C)C(=O)N[C@@H](CCCNC(=N)N)C(=O)N[C@@H](Cc1ccccc1)C(=O)N[C@@H](Cc1ccccc1)C(=O)N[C@H](C(=O)N[C@@H](C)C(=O)N1CCC[C@H]1C(=O)N[C@@H](Cc1ccccc1)C(=O)N1CCC[C@H]1C(=O)N[C@@H](CCC(=O)O)C(=O)N[C@H](C(=O)N[C@@H](Cc1ccccc1)C(=O)NCC(=O)O)C(C)C)C(C)C [LNENLLRFFVAPFPEVFG] (H-LNENLLRFFVAPFPEVFG-OH; N-terminus and C-terminus assumed)
antiproliferative activity of synthetic peptides (in words) [5]: strongly inhibited proliferation | % prolif (percentage of counts with respect to the control) ([5]; peptide concentration 2 μM): 56% | % prolif (percentage of counts with respect to the control) ([5]; peptide concentration 4 μM): 44% | % prolif (percentage of counts with respect to the control) ([5]; peptide concentration 8 μM): 160% | % prolif (percentage of counts with respect to the control) ([5]; peptide concentration 17 μM): 114% | % prolif (percentage of counts with respect to the control) ([5]; peptide concentration 33 μM): 131% | % prolif (percentage of counts with respect to the control) ([5]; peptide concentration 66 μM): 119% | % prolif (percentage of counts with respect to the control) ([5]; peptide concentration 133 μM): 135% | IC50 [1]: 250 µM | IC50 [2]: 300 µM | IC50 [3]: 150 µM | IC50 [4]: 280 µM

CC(C)C[C@H](NC(=O)[C@H](CC(C)C)NC(=O)[C@H](CC(N)=O)NC(=O)[C@H](CCC(=O)O)NC(=O)[C@@H](N)CC(N)=O)C(=O)N[C@@H](CCCNC(=N)N)C(=O)N[C@@H](Cc1ccccc1)C(=O)N[C@@H](Cc1ccccc1)C(=O)N[C@H](C(=O)N[C@@H](C)C(=O)N1CCC[C@H]1C(=O)N[C@@H](Cc1ccccc1)C(=O)N1CCC[C@H]1C(=O)N[C@@H](CCC(=O)O)C(=O)N[C@H](C(=O)N[C@@H](Cc1ccccc1)C(=O)NCC(=O)O)C(C)C)C(C)C [NENLLRFFVAPFPEVFG] (H-NENLLRFFVAPFPEVFG-OH; N-terminus and C-terminus assumed)
IC50 [1]: 275 µM | IC50 [2]: 850 µM | IC50 [3]: 50 µM | IC50 [4]: 55 µM

CC(C)C[C@H](NC(=O)[C@H](CC(C)C)NC(=O)[C@@H]1CCCN1C(=O)[C@H](CC(C)C)NC(=O)[C@@H]1CCCN1C(=O)[C@H](CC(C)C)NC(=O)[C@H](Cc1c[nH]cn1)NC(=O)[C@H](CC(C)C)NC(=O)[C@@H](N)CC(N)=O)C(=O)O [NLHLPLPLL] (H-NLHLPLPLL-OH; N-terminus and C-terminus assumed)
IC50 [1]: 450 µM | IC50 [2]: 1200 µM | IC50 [3]: 600 µM | IC50 [4]: 15 µM

CC(C)C[C@H](NC(=O)[C@H](CC(C)C)NC(=O)[C@@H]1CCCN1C(=O)[C@H](CC(C)C)NC(=O)[C@@H]1CCCN1C(=O)[C@H](CC(C)C)NC(=O)[C@H](Cc1c[nH]cn1)NC(=O)[C@H](CC(C)C)NC(=O)[C@H](CC(N)=O)NC(=O)[C@H](CCC(=O)O)NC(=O)[C@@H](N)C(C)C)C(=O)O [VENLHLPLPLL] (H-VENLHLPLPLL-OH; N-terminus and C-terminus assumed)
IC50 [1]: 150 µM | IC50 [2]: 250 µM | IC50 [3]: 300 µM | IC50 [4]: 175 µM

CNC(=O)[C@@H](NC(=O)[C@H](CC(C)C)[C@H](O)C(=O)NO)C(C)(C)C [marimastat]
IC50 [6]: micromolar range

c1cnc2c(c1)ccc1cccnc12 [o-phenantroline]
MMP inhibition (in words) [7]: complete MMP inhibition
